Assay results reported in patent publication US7208528B1, “Polyamine analogues as therapeutic and diagnostic agents” (MediQuest Therapeutics, Inc., priority 1997, dated 2007).

Key:
[1] = test system: mutant L1210 leukemia cells deficient in polyamine uptake; details: cited from earlier work
MDA-MB-231 cells = assay: Growth assay of MDA-MB-231 cells with ODC inhibitor (DFMO) and 1 μM spermidine; details: alone, in the presence of 1 μM SPD
Protocol: The estrogen insensitive human breast carcinoma MDA-MB-231 cell line as the primary cell line in the screen. […] In order to optimize the screen for polyamine transport inhibition, 1.0 μM spermidine was added to media to reverse the effects of ODC inhibitors. The assay was also performed over seven days because this allows for the greatest dynamic range in cell growth due to the mechanism of ODC inhibitors. Cells need to divide several times before the intracellular level of polyamines begin to decrease to growth inhibitory levels.
Compounds were tested for their ability to inhibit cell growth in the presence of 1 μM spermidine and 230 μM ODC inhibitor for the MDA-MB-231 cells or 1 mM ODC inhibitor for the PC3 cells.
In our six day growth assays, 1202 was tested at increasing concentrations with the optimal concentration of DFMO.

[2] = test system: polyamine transport system of MDA cells; assay: Transport Km and Vmax with 3H-SPD after long term treatment of MDA cells; format: cell-based, human; details: DFMO in the presence of SPD
From the text: We wished to determine the effects of long term treatment with DFMO, 1202, or both, on polyamine transport characteristics.

[3] = test system: polyamine transport system of MDA cells; assay: SPD transport inhibition and recovery after washing in MDA cells; format: cell-based, human; details: 3 day incubation
MDA cells [4] = assay: Long term (three week) growth of MDA cells with DFMO, 1202 or both; format: cell-based, human; details: DFMO 500 μM or 1202 60 μM alone, three weeks
[5] = test system: MDA breast carcinoma cells; assay: Rescue from DFMO-induced growth inhibition of MDA cells without added polyamines, six day growth assay; format: cell-based, human; details: Homo sapiens, Breast carcinoma cell, 144 h; 230 μM, no additional polyamines, six day growth assay; read-out: cell number, % of control
Protocol: An additional series of spermine amides were evaluated to extend the structure-activity relationship around this polyamine transport target.
Growth assays were done over a six day period in order to allow for polyamine depletion within cells. When synthesis of polyamines is inhibited, cells compensate by increasing transport of extracellular polyamines into the cell. Over the time course of the assay, polyamines in the culture media may be depleted resulting in growth inhibition.

MDA cells [6] = assay: Intracellular polyamine levels in MDA cells after long term treatment; format: cell-based, human; details: DFMO alone, one and three weeks
From the text: We examined the intracellular polyamine levels in MDA cells after 6 and 20 days of growth in the presence of polyamine synthesis inhibitor or transport inhibitor, or both.

[7] = test system: wild-type L1210 cancer cells; details: cited from earlier work
[8] = mice inoculated with mutant L1210 cells

## NCCC[C@](N)(C(=O)O)C(F)F [DFMO, α-difluoromethylornithine]
[1]; PAT-deficient L1210 cells, DFMO
  survival: > 60 days
[1]; [8]
  increase in median survival time: 87%
  mice cured: 13 of 40
MDA-MB-231 cells
  effect on growth of single agent: minimal
[2]
  change in Vmax: no change
[3]
  up-regulation of SPD transport: 3 fold
MDA cells [4]
  growth rate with single compound: little difference in growth rate
[5]
  activity at 230 µM: 35%
MDA cells [6]
  decrease in PUT levels: 69–86%
[7]; mice inoculated with the parental cell line
  increase in median survival time: 22%
[7]; wild-type L1210, treated with DFMO
  time to death: 12 days
